Reference: publication PMC9043826, “Dalpulapans A–E from the roots of Dalbergia stipulacea” (RSC Advances, 2021)

Columns and labels:
Format in all cases: cell-based
[1] = tested on: HeLa (cervical cancer cells); experiment: MTT cytotoxicity assay against HeLa cells; settings: Homo sapiens
Procedure: (§1) All isolated compounds, except 12, were evaluated for cytotoxicity against A549 (lung cancer cells), HeLa (cervical cancer cells) and Vero cells using the MTT assay.
(§2) MTT (3-(4,5-dimethylthiazol-2-yl)-2,5-diphenyltetrazolium bromide) assay was performed to evaluate the cytotoxic effect of the compounds. The procedure has been explained in a previous report.[14] In brief, all cells were cultured in RPMI 1640 medium supplemented with 10% fetal bovine serum, penicillin (100 U mL^−1) and streptomycin (100 μg mL^−1) (Gibco-BRL, USA) and incubated at 37 °C in a humidified atmosphere of 5% CO2. For preliminary testing, cells were exposed to the selected compounds at a concentration of 100 μg mL^−1 for 24, 48 and 72 hours. […] Control groups were treated with a solvent (a mixture of DMSO and ethanol; 1 : 1). After incubation, the medium was replaced with 110 μL of fresh medium containing MTT (0.5 mg mL^−1 in PBS) (Sigma Chemical Co., St. Louis, MO, USA) and incubated for 2 h. […] The absorbance of formazan was measured with a microplate reader (Bio-Rad Laboratories, USA) at the wavelength of 550 nm using 655 nm as a reference wavelength. […] The percentage of viable cells which corresponds to the production of formazan was calculated as previously described (Kumnerdkhonkaen et al. 2018).% Cell viability = [sample (A550 − A655)/control (A550 − A655)] × 100

A549 (lung cancer cells) = experiment: MTT cytotoxicity assay against A549 cells; settings: Homo sapiens
Procedure: as §1, §2

[2] = tested on: Vero cells (kidney of African green monkey cells; normal cells); experiment: MTT cytotoxicity assay against Vero (normal) cells; settings: Chlorocebus sabaeus
Procedure: as §1, §2

Q: Which results are given for `CC(C)=CCC/C(C)=C/Cc1c(O)ccc2c1OC[C@H]1c3cc4c(cc3O[C@@H]21)OCO4` [Compound 6, R,R-velucarpin A]?
A: IC50 [1]: 10.9 ± 0.42 µM; IC50 (A549 (lung cancer cells)): 14.6 ± 1.31 µM; IC50 [2]: 29.2 ± 1.16 µM
